Results: patent publication US7446119B2, “Miticidal triazolidine derivatives” (Crompton Corporation, priority 2005, dated 2008)

Experiments:
Tetranychus urticae Koch [1] = test: Mite adulticide pre-infection test (MI); format: in vivo; conditions: cowpea plants sprayed to run off with 300 ppm, adult mites transferred one day after treatment, examined five days later
Experimental: The remaining examples relate to the miticidal use of the compounds of this invention. In all these examples, a stock solution for the compounds was prepared at 3000 ppm by dissolving each compound to be tested in acetone with 0.67% Tween (v/v), a wetting agent. […] For each example that follows, this stock solution was used and the specificized dilutions made. All the tests discussed below, which involved treatment with compounds of this invention were always repeated with controls, in which the active compound was not provided, to permit a comparison upon which the percent control was calculated. One day before treatment of cowpea primary leaves with the test solutions, rings of tree tanglefoot were applied to each of two cowpea primary leaves, one from each of two plants in a pot. For the mite adulticide pre-infection tests, plants were sprayed to run off with a 300 ppm solution diluted from the 3000 ppm stock solution. One day following treatment of the plants with the test solution, groups of approximately 25 adult mites were transferred into the rings. Five days later these rings were examined for live mites remaining on the leaves. The percent control was estimated based on the number of mites surviving on the control plants.

Tetranychus urticae Koch [2] = test: Mite ovicide test (MIOV); format: in vivo; conditions: mite eggs on cowpea leaves, sprayed to run off with 100 ppm, examined nine days after treatment, based on unhatched eggs
Experimental: The remaining examples relate to the miticidal use of the compounds of this invention. In all these examples, a stock solution for the compounds was prepared at 3000 ppm by dissolving each compound to be tested in acetone with 0.67% Tween (v/v), a wetting agent. […] For each example that follows, this stock solution was used and the specificized dilutions made. All the tests discussed below, which involved treatment with compounds of this invention were always repeated with controls, in which the active compound was not provided, to permit a comparison upon which the percent control was calculated. One day before treatment of cowpea primary leaves with the test solutions, rings of tree tanglefoot were applied to each of two cowpea primary leaves, one from each of two plants in a pot. For the mite ovicide tests, groups of adult mites (Tetranychus urticae Koch) were transferred into the rings one day before treatment and the females were allowed to deposit eggs until one hour before treatment, at which point all the adults were removed. The plants were then sprayed to run off with a 100 ppm solution diluted from the 3000 ppm stock solution. Nine days following treatment the ovicide rings were examined for unhatched eggs and living immature mites. The percent control was estimated based on the number of unhatched eggs.

COc1ccc(-c2ccccc2)cc1N1CN(C)CN1C(=O)OC(C)C [Compound 1, 1-methylethyl 2-(4-methoxy-[1,1′-biphenyl]-3-yl)-4-methyl-1,2,4-triazolidine-1-carboxylate]
Percent Control MI (Tetranychus urticae Koch [1]): 100% | Percent Control MIOV (Tetranychus urticae Koch [2]): 100%
